This test relates to Endogenous Huntingtin Protein. Description: Endogenous Huntingtin Protein Assay (ELISA-based Meso Scale Discovery electrochemiluminescence). The class given is cell-based. To be noted: MSD electrochemiluminescence, Table 1. In a few lines:
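Huntingtin was captured overnight at 4 °C on plates coated with 1 μg/mL MW1 (polyQ-expanded) or MAB2166 antibody and BSA-blocked. Detection used a rabbit monoclonal and then a SULFO-TAG goat anti-rabbit antibody (0.25 μg/mL, 1 h each, room temperature). Signal was read by electrochemiluminescence.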
(In an ELISA, binding on a coated surface is turned into a signal by an enzyme label.)
The term IC50 denotes the concentration that inhibits the measured activity by half. Compound `CN(c1ncc(-c2ccc(-c3ncn(C)n3)cc2O)nn1)C1CC(C)(C)NC(C)(C)C1` [Cpd 62, 2-{3-[methyl(2,2,6,6-tetramethylpiperidin-4-yl)amino]-1,2,4-triazin-6-yl}-5-(1-methyl-1H-1,2,4-triazol-3-yl)phenol] returned an IC50 of 0.1 to 0.5 µM. For `CC(C)(C)N[C@@H]1CCN(c2ncc(-c3ccc(-c4cn[nH]c4)cc3O)nn2)C1` [Cpd 356, 2-{3-[(3R)-3-(tert-butylamino)pyrrolidin-l-yl]-1,2,4-triazin-6-yl}-5-(1H-pyrazol-4-yl)phenol] the value was not above 0.1 µM; for `CN1CCC2(CC1)CN(c1ncc(-c3ccc(-n4cnc(F)c4)cc3O)nn1)C2` [Cpd 230, 5-(4-fluoro-1H-imidazol-1-yl)-2-[3-(7-methyl-2,7-diazaspiro[3.5]nonan-2-yl)-1,2,4-triazin-6-yl]phenol], more than 0.5 µM. For the compound `CO[C@H]1[C@@H](Nc2ncc(-c3ccc(-c4cn[nH]c4)cc3O)nn2)CC(C)(C)NC1(C)C` [Cpd 286, 2-(3-{[(3S,4S)-3-methoxy-2,2,6,6-tetramethylpiperidin-4-yl]amino}-1,2,4-triazin-6-yl)-5-(1H-pyrazol-4-yl)phenol], the IC50 was 0.1 to 0.5 µM.

Consider `CN(c1ncc(-c2ccc(-c3cc(F)c4[nH]cnc4c3)cc2O)nn1)C1CC(C)(C)NC(C)(C)C1` [Cpd 280, 5-(7-fluoro-1H-benzimidazol-5-yl)-2-{3-[methyl(2,2,6,6-tetramethylpiperidin-4-yl)amino]-1,2,4-triazin-6-yl}phenol], for which the IC50 is not above 0.1 µM. For `Oc1cc(-c2cn[nH]c2)ccc1-c1cnc(N2CC[C@H]3NCC[C@@H]32)nn1` [Cpd 332, 2-{3-[(3aR,6aS)-hexahydropyrrolo[3,2-b]pyrrol-1(2H)-yl]-1,2,4-triazin-6-yl}-5-(1H-pyrazol-4-yl)phenol] the value was not above 0.1 µM; for `CC1(C)CC(Oc2ncc(-c3ccc(-c4cc[nH]n4)cc3O)nn2)CC(C)(C)N1` [Cpd 107, 5-(1H-pyrazol-3-yl)-2-{3-[(2,2,6,6-tetramethylpiperidin-4-yl)oxy]-1,2,4-triazin-6-yl}phenol], 1 to 3 µM.

For `CC(C)NC1CCN(c2ncc(-c3ccc(-c4nnn(C)n4)cc3O)nn2)C1` (stereo not shown) [Cpd 259, 5-(2-methyl-2H-tetrazol-5-yl)-2-(3-{3-[(propan-2-yl)amino]pyrrolidin-1-yl}-1,2,4-triazin-6-yl)phenol], the IC50 was 0.1 to 0.5 µM.

In turn, `CN(c1ncc(-c2ccc(-c3ccc(O)nn3)cc2O)nn1)C1CC(C)(C)NC(C)(C)C1` [Cpd 134, 6-(3-hydroxy-4-{3-[methyl(2,2,6,6-tetramethylpiperidin-4-yl)amino]-1,2,4-triazin-6-yl}phenyl)pyridazin-3-ol] yielded a concentration for half-maximal inhibition (IC50) not above 0.1 µM. For the compound `N[C@H]1CC[C@@H]2CN(c3ncc(-c4ccc(-c5cn[nH]c5)cc4O)nn3)C[C@@H]21` [Cpd 165, 2-{3-[(3aR,4S,6aS)-4-aminohexahydrocyclopenta[c]pyrrol-2(1H)-yl]-1,2,4-triazin-6-yl}-5-(1H-pyrazol-4-yl)phenol], the IC50 is not above 0.1 µM. For `COc1cc(-c2ccc(-c3cnc(N4CCC(NC(C)C)C4)nn3)c(O)c2)ncn1` (stereo not shown) [Cpd 265, 5-(6-methoxypyrimidin-4-yl)-2-(3-{3-[(propan-2-yl)amino]pyrrolidin-1-yl}-1,2,4-triazin-6-yl)phenol] the value was not above 0.1 µM; for `Oc1cc(-c2cn[nH]c2)ccc1-c1cnc(N2CCC(NC34CC5CC(CC(C5)C3)C4)C2)nn1` (stereo not shown) [Cpd 157, 2-(3-{3-[(adamantan-1-yl)amino]pyrrolidin-1-yl}-1,2,4-triazin-6-yl)-5-(1H-pyrazol-4-yl)phenol], 0.1 to 0.5 µM; for `CN1CCC2(CC1)CN(c1ncc(-c3ccc(-c4c[nH]nc4F)cc3O)nn1)C2` [Cpd 149, 5-(3-fluoro-1H-pyrazol-4-yl)-2-[3-(7-methyl-2,7-diazaspiro[3.5]nonan-2-yl)-1,2,4-triazin-6-yl]phenol], not above 0.1 µM. For the compound `CN(c1ncc(-c2ccc(-c3cn[nH]c3)cc2O)nn1)C1CC(C)(C)NC(C)(C)C1` [Cpd 15, 2-{3-[methyl(2,2,6,6-tetramethylpiperidin-4-yl)amino]-1,2,4-triazin-6-yl}-5-(1H-pyrazol-4-yl)phenol], the IC50 was not above 0.1 µM. For `Cc1nnc(-c2ccc(-c3cnc(N(C)C4CC(C)(C)NC(C)(C)C4)nn3)c(O)c2)o1` [Cpd 81, 5-(5-methyl-1,3,4-oxadiazol-2-yl)-2-{3-[methyl(2,2,6,6-tetramethylpiperidin-4-yl)amino]-1,2,4-triazin-6-yl}phenol] the value was not above 0.1 µM. For `CN(c1ncc(-c2ccc(-c3ccc4c(c3)ncn4C)cc2O)nn1)C1CC(C)(C)NC(C)(C)C1` [Cpd 285, 5-(1-methyl-1H-benzimidazol-5-yl)-2-{3-[methyl(2,2,6,6-tetramethylpiperidin-4-yl)amino]-1,2,4-triazin-6-yl}phenol] the value was not above 0.1 µM. Take `CN1CCC2(CC1)CN(c1ncc(-c3ccc(-c4ncccn4)cc3O)nn1)C2` [Cpd 244, 2-[3-(7-methyl-2,7-diazaspiro[3.5]nonan-2-yl)-1,2,4-triazin-6-yl]-5-(pyrimidin-2-yl)phenol]: the half-inhibitory concentration (IC50) was in the range of 3 to 9 µM. The compound `Cc1nsc(-c2ccc(-c3cnc(N(C)C4CC(C)(C)NC(C)(C)C4)nn3)c(O)c2)n1` [Cpd 66, 2-{3-[methyl(2,2,6,6-tetramethylpiperidin-4-yl)amino]-1,2,4-triazin-6-yl}-5-(3-methyl-1,2,4-thiadiazol-5-yl)phenol] came in with a 50% inhibitory concentration (IC50) not above 0.1 µM. For `CN(c1ncc(-c2ccc(-c3cc4cn[nH]c4cn3)cc2O)nn1)C1CC(C)(C)NC(C)(C)C1` [Cpd 184, 2-{3-[methyl(2,2,6,6-tetramethylpiperidin-4-yl)amino]-1,2,4-triazin-6-yl}-5-(1H-pyrazolo[3,4-c]pyridin-5-yl)phenol] the value was not above 0.1 µM; for `CN(c1ncc(-c2ccc(-c3cc(F)c4c(c3)ncn4C)cc2O)nn1)C1CC(C)(C)NC(C)(C)C1` [Cpd 300, 5-(7-fluoro-1-methyl-1H-benzimidazol-5-yl)-2-{3-[methyl(2,2,6,6-tetramethylpiperidin-4-yl)amino]-1,2,4-triazin-6-yl}phenol], 1 to 3 µM.

Take `CN1CCC2(CC1)CN(c1ncc(-c3ccc(-c4ccc5c(cnn5C)c4)cc3O)nn1)C2` [Cpd 223]: the half-inhibitory concentration (IC50) was in the range of 0.1 to 0.5 µM.

Take `Oc1cc(-c2cn[nH]c2)ccc1-c1cnc(N2CCC(NC3CCC(F)C3)C2)nn1` (stereo not shown) [Cpd 420, 2-(3-{3-[(3-fluorocyclopentyl)amino]pyrrolidin-1-yl}-1,2,4-triazin-6-yl)-5-(1H-pyrazol-4-yl)phenol]: the IC50 was not above 0.1 µM.

As for `CC(C)(C)NC1CCN(c2ncc(-c3ccc(-c4ccn5nncc5c4)cc3O)nn2)C1` (stereo not drawn) [Cpd 207, 2-{3-[3-(tert-butylamino)pyrrolidin-l-yl]-1,2,4-triazin-6-yl}-5-([1,2,3]triazolo[1,5-a]pyridin-5-yl)phenol], the half-inhibitory concentration (IC50) fell in the range of 1 to 3 µM.

For the compound `CC1(C)CC(Nc2ncc(-c3ccc(-c4ccnnc4)cc3O)nn2)CC(C)(C)N1` [Cpd 314, 5-(pyridazin-4-yl)-2-{3-[(2,2,6,6-tetramethylpiperidin-4-yl)amino]-1,2,4-triazin-6-yl}phenol], the IC50 is not above 0.1 µM.

On to `Cn1cc(-c2ccc(-c3cnc(N4CC[C@@H](NC5CCC5)C4)nn3)c(O)c2)cn1` [Cpd 406, 2-{3-[(3R)-3-(cyclobutylamino)pyrrolidin-1-yl]-1,2,4-triazin-6-yl}-5-(1-methyl-1H-pyrazol-4-yl)phenol], for which the IC50 was not above 0.1 µM. For `CN(c1cnc(-c2ccc(-c3cn[nH]c3)cc2O)nn1)C1CC(C)(C)NC(C)(C)C1` [Cpd 24, 2-{6-[methyl(2,2,6,6-tetramethylpiperidin-4-yl)amino]-1,2,4-triazin-3-yl}-5-(1H-pyrazol-4-yl)phenol] the value was 0.1 to 0.5 µM; for `Oc1cc(-c2cn[nH]c2)ccc1-c1cnc(N2CCN3CCC[C@H]3C2)nn1` [Cpd 116, 2-{3-[(8aS)-hexahydropyrrolo[1,2-a]pyrazin-2(1H)-yl]-1,2,4-triazin-6-yl}-5-(1H-pyrazol-4-yl)phenol], 0.1 to 0.5 µM.

Consider `CC(C)NC1CCN(c2ncc(-c3ccc(-c4c[nH]nn4)cc3O)nn2)C1` (stereo not shown) [Cpd 258, 2-(3-{3-[(propan-2-yl)amino]pyrrolidin-1-yl}-1,2,4-triazin-6-yl)-5-(1H-1,2,3-triazol-4-yl)phenol], for which the 50% inhibitory concentration (IC50) is not above 0.1 µM. For `CC1(C)CC(Oc2ncc(-c3ccc(-c4c[nH]nc4F)cc3O)nn2)CC(C)(C)N1` [Cpd 72, 5-(3-fluoro-1H-pyrazol-4-yl)-2-{3-[(2,2,6,6-tetramethylpiperidin-4-yl)oxy]-1,2,4-triazin-6-yl}phenol] the value was not above 0.1 µM; for `CN(c1ncc(-c2ccc(-c3cn4ccnc4cn3)cc2O)nn1)C1CC(C)(C)NC(C)(C)C1` [Cpd 80, 5-(imidazo[1,2-a]pyrazin-6-yl)-2-{3-[methyl(2,2,6,6-tetramethylpiperidin-4-yl)amino]-1,2,4-triazin-6-yl}phenol], not above 0.1 µM; for `OCCNC1CCN(c2ncc(-c3ccc(-c4cn[nH]c4)cc3O)nn2)C1` (stereo not shown) [Cpd 333, 2-(3-{3-[(2-hydroxyethyl)amino]pyrrolidin-1-yl}-1,2,4-triazin-6-yl)-5-(1H-pyrazol-4-yl)phenol], not above 0.1 µM.

As for `CN(c1ncc(-c2ccc(-c3ccc4ncoc4c3)cc2O)nn1)C1CC(C)(C)NC(C)(C)C1` [Cpd 145, 5-(1,3-benzoxazol-6-yl)-2-{3-[methyl(2,2,6,6-tetramethylpiperidin-4-yl)amino]-1,2,4-triazin-6-yl}phenol], the 50% inhibitory concentration (IC50) was not above 0.1 µM. In the case of `Oc1cc(-c2cn[nH]c2)ccc1-c1cnc(N2CC[C@@H](CNC3CCOCC3)C2)nn1` [Cpd 397, 2-{3-[(3S)-3-{[(oxan-4-yl)amino]methyl}pyrrolidin-1-yl]-1,2,4-triazin-6-yl}-5-(1H-pyrazol-4-yl)phenol], the 50% inhibitory concentration (IC50) is not above 0.1 µM.

As to `CNC1CCN(c2ncc(-c3ccc(-c4cnc5c(cnn5C)c4)cc3O)nn2)C1` (stereo not shown) [Cpd 271, 2-{3-[3-(methylamino)pyrrolidin-1-yl]-1,2,4-triazin-6-yl}-5-(1-methyl-1H-pyrazolo[3,4-b]pyridin-5-yl)phenol], the IC50 was 0.1 to 0.5 µM.

For the origin of these results see patent publication US11780839B2, “Compounds for treating Huntington's disease” (PTC THERAPEUTICS, INC., priority 2018, dated 2023).
